Results on four compounds are retold here after patent publication US20260210939A1, “MODIFIED OLFACTORY RECEPTORS” (GIVAUDAN SA, priority 2022, published 2026).

As a reminder, the EC50 is the concentration giving half of the maximal effect.

Where two headings read alike, the source gives them in different places.

Series [1] deals with human class II OR identified in the library screening (Homo sapiens, UniProt Q9GZK7). Description: Confirmatory dose-response analysis of library-hit OR with cognate ligand, wild-type vs C-terminal domain SEQ ID NO: 221 (Table 17).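 Note: Wild-type receptor sequences expressed from the pcDNA3.1(+) vector and compared with the C-terminally modified receptors in dose-response tests using each receptor's cognate ligand.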 The conditions noted are these: read-out: Potency, EC50 changed C-term; OR11A1, modified C-terminus SEQ ID NO: 221 (SEQ ID NO: 702).
Target sequence in this assay (Q9GZK7 1-298): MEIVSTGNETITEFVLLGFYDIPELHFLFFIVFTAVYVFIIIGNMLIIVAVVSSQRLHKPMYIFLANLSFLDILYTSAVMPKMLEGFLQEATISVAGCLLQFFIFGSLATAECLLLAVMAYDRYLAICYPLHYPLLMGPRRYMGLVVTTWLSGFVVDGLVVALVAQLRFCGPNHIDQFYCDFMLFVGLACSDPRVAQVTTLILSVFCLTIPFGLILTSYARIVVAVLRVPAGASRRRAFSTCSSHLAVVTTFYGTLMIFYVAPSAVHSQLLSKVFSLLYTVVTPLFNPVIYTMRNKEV
Experimental: (§1) Selected ligand—OR pairs were then tested in a confirmatory test with a dose response analysis.
(§2) For selected receptors, the wild-type sequence was synthesized and cloned into pcDNA3.1 (+). Dose-response analysis with the cognate ligand was then performed for both the wild-type and the modified sequence.
The target is the same in series [2]. The description is as above.
Target sequence in this assay (Q9GZK7 whole entry, the tested form may be a part): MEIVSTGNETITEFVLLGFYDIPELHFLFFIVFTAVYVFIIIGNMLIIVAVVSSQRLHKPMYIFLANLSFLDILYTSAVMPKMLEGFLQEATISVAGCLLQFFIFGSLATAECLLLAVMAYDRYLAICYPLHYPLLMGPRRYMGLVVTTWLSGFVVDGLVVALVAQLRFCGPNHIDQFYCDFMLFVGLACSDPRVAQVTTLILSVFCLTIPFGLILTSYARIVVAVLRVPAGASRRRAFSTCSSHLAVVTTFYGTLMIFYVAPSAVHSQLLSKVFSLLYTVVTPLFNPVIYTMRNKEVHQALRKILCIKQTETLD
Experimental: as §1, §2
For series [3], the target named is human class II OR identified in the library screening (Homo sapiens, UniProt Q8NG80).
Target sequence in this assay (Q8NG80 whole entry): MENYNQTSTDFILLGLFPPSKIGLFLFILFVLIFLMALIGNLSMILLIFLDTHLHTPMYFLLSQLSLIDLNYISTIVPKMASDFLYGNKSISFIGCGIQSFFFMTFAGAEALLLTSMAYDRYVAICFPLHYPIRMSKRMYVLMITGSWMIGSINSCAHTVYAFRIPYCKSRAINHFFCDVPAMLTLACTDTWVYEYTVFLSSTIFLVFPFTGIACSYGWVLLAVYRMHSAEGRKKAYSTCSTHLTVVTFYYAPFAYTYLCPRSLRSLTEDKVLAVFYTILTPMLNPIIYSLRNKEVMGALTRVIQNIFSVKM
Experimental: as §1, §2
Series [4] addresses human class II OR identified in the library screening (Homo sapiens, UniProt Q8NG85).
Target sequence in this assay (Q8NG85 whole entry, the tested form may be a part): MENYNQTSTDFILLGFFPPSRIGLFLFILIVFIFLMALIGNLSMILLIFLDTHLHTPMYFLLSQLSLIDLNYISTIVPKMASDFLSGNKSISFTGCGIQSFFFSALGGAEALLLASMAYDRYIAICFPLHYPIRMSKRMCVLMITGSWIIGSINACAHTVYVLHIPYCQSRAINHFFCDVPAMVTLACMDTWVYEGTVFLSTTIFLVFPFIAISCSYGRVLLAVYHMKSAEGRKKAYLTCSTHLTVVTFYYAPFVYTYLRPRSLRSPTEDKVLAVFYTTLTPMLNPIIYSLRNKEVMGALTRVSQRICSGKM
Experimental: as §1, §2
For series [5], the system named is human class II OR identified in the library screening. Description: Confirmatory dose-response analysis of library-hit OR with cognate ligand, wild-type vs C-terminal domain SEQ ID NO: 221 (Table 17).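 For all read-outs here: Wild-type receptor sequences expressed from the pcDNA3.1(+) vector and compared with the C-terminally modified receptors in dose-response tests using each receptor's cognate ligand.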 The conditions noted are these: for Fold improvement efficacy: maximal induction; for Detection threshold; Fold improvement efficacy: under detection threshold.
Experimental: as §1, §2
Series [6] addresses human class II OR identified in the library screening (Homo sapiens, UniProt Q8NG85). The series is described as above. Conditions: read-out: Potency, EC50 changed C-term; OR2L3, modified C-terminus SEQ ID NO: 221 (SEQ ID NO: 412).
Target sequence in this assay (Q8NG85 1-296): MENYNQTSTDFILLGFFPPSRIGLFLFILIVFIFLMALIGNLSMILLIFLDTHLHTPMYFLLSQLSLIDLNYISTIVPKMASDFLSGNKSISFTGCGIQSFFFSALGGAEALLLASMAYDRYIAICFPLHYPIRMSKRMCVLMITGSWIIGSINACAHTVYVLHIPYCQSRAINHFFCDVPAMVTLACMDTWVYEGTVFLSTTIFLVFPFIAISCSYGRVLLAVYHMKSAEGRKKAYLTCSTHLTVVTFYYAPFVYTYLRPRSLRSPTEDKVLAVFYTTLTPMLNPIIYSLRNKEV
Experimental: as §1, §2
Series [7] concerns the target human class II OR identified in the library screening (Homo sapiens, UniProt Q8NG80). The description is as above. Conditions: read-out: Potency, EC50 changed C-term; OR2L5, modified C-terminus SEQ ID NO: 221 (SEQ ID NO: 413).
Target sequence in this assay (Q8NG80 1-296): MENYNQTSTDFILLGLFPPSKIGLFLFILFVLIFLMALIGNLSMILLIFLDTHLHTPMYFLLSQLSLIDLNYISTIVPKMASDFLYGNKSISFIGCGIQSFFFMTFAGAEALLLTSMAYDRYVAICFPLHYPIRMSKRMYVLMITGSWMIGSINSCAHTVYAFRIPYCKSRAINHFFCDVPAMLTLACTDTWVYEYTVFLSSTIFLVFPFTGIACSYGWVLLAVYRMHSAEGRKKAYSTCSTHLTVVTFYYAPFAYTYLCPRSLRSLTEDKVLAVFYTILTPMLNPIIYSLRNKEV
Experimental: as §1, §2
The subject of series [8] is human class II OR identified in the library screening.
Experimental: as §1, §2
The target of series [9] is human class II OR identified in the library screening (Homo sapiens, UniProt Q8NGG4).
Experimental: as §1, §2
Series [10] concerns the target human class II OR identified in the library screening (Homo sapiens, UniProt Q8NGX5).
Target sequence in this assay (Q8NGX5 whole entry, the tested form may be a part): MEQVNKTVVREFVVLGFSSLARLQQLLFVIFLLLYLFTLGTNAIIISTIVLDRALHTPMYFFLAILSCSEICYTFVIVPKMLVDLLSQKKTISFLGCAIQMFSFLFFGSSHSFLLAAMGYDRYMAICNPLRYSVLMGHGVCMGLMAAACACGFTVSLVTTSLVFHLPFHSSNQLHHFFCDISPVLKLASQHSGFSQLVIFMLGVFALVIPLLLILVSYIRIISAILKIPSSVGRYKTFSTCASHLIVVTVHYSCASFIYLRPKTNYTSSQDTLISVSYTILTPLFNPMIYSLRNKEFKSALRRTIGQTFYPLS
Experimental: as §1, §2
Series [11] addresses human class II OR identified in the library screening (Homo sapiens, UniProt Q9Y4A9).
Target sequence in this assay (Q9Y4A9 whole entry, the tested form may be a part): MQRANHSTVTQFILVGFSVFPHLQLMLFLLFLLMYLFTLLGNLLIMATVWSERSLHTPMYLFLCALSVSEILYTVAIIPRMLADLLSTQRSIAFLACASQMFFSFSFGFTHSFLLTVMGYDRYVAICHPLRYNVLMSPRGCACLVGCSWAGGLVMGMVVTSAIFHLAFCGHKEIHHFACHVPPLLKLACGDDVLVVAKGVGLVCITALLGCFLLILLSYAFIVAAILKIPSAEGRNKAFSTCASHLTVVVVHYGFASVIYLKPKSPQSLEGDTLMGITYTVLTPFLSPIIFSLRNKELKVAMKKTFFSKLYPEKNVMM
Experimental: as §1, §2
Series [12] addresses human class II OR identified in the library screening (Homo sapiens, UniProt Q8NGX5). Put plainly: Confirmatory dose-response analysis of library-hit OR with cognate ligand, wild-type vs C-terminal domain SEQ ID NO: 221 (Table 17).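 Note: Wild-type receptor sequences expressed from the pcDNA3.1(+) vector and compared with the C-terminally modified receptors in dose-response tests using each receptor's cognate ligand.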 Conditions: read-out: Potency, EC50 changed C-term; OR10K1, modified C-terminus SEQ ID NO: 221 (SEQ ID NO: 687).
Target sequence in this assay (Q8NGX5 1-292): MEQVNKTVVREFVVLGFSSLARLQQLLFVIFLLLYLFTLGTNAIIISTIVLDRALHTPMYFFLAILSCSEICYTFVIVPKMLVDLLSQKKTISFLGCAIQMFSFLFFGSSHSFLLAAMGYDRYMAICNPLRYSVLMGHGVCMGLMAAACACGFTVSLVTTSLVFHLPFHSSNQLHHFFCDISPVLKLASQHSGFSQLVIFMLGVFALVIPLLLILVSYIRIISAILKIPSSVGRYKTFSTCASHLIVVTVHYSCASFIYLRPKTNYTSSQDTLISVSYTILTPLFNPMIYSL
Experimental: as §1, §2
The target in series [13] is human class II OR identified in the library screening (Homo sapiens, UniProt Q9Y4A9). Described as above. The conditions noted are these: read-out: Potency, EC50 changed C-term; OR10H1, modified C-terminus SEQ ID NO: 221 (SEQ ID NO: 679).
Target sequence in this assay (Q9Y4A9 1-297): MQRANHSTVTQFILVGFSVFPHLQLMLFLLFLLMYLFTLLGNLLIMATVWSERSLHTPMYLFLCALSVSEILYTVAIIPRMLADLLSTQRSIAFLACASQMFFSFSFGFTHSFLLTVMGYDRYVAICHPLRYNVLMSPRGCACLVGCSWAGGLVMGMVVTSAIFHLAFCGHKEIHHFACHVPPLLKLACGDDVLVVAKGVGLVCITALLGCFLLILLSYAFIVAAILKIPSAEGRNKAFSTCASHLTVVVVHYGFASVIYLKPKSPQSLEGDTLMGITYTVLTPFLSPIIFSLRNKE
Experimental: as §1, §2
Where [14] appears, read: OR2L5, modified C-terminus SEQ ID NO: 221 vs wild-type.
Where [15] appears, read: OR8H1, modified C-terminus SEQ ID NO: 221 vs wild-type.
Where [16] appears, read: OR10K1, modified C-terminus SEQ ID NO: 221 vs wild-type.

human class II OR identified in the library screening (Homo sapiens, UniProt Q8NGG4), sequence (Q8NGG4 whole entry): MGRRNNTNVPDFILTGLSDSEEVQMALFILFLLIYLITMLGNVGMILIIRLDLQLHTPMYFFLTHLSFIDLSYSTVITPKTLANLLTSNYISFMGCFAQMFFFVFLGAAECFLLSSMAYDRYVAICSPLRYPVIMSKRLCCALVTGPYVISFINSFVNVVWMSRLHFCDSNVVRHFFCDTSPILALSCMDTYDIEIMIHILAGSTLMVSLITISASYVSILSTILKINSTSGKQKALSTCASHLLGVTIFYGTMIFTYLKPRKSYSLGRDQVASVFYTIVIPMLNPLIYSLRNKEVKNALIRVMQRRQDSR

For the compound `CC1CCCC2(C)CCCCC12O` (stereo not drawn) [Geosmin], the results for the EC50 in series [1] and in [2] were 2.2 µM and 6.8 µM, respectively.

For `CCOC(=O)C1CCCCC1` [Ethyl cyclohexanecarboxylate], the “Detection threshold; concentration for 2-fold induction, wild-type” value in [3] was 40.5 µM; in [4], “no”. Also, the Fold improvement efficacy in [5] (OR2L3, modified C-terminus SEQ ID NO: 221 vs wild-type) is listed as 17.1 fold; in [5] (setting [14]), 2.6 fold. Also, the “Potency, Fold-improvement” value in [5] (OR2L5, EC50 modified C-terminus SEQ ID NO: 221 vs wild-type) is 24.1 fold. In [5] (setting [14]), the “Detection threshold; Fold improvement efficacy” value turned out to be 158.8 fold. Moreover, the figures for the EC50 in series [6] and in series [7] were 86.2 µM and 4.76 µM, respectively.

For `N#CC(=C1CCCCC1)c1ccccc1` [Peonile], the “Detection threshold; concentration for 2-fold induction, changed C-term.” value in [8] came to 0.4 µM. Moreover, in [9], the “Detection threshold; concentration for 2-fold induction, wild-type” value amounted to 6.9 µM. Further, in series [5] (OR8H1, EC50 modified C-terminus SEQ ID NO: 221 vs wild-type), the “Potency, Fold-improvement” value is 2.95 fold. Further, in [5] (setting [15]), the Fold improvement efficacy is recorded as 4.2 fold and the “Detection threshold; Fold improvement efficacy” value is 15.6 fold. Further, the EC50 in series [5] (read-out: Potency, EC50 changed C-term, OR8H1, modified C-terminus SEQ ID NO: 221 (SEQ ID NO: 637)) is 5.8 µM.

As for `CC(C)CCc1ccc2c(c1)OCC(=O)CO2` [7-(3-Methylbutyl)-benzo[b][1,4]dioxepin-3-one], the “Detection threshold; concentration for 2-fold induction, wild-type” value was 9.4 µM in series [10] and “no” in series [11]. Further, the Fold improvement efficacy in series [5] (OR10H1, modified C-terminus SEQ ID NO: 221 vs wild-type) worked out at 10.0 fold; in series [5] (setting [16]) it was 12.4 fold. In addition, the “Potency, Fold-improvement” value in series [5] (OR10K1, EC50 modified C-terminus SEQ ID NO: 221 vs wild-type) stood at 3.1 fold. In addition, in series [5] (setting [16]), the “Detection threshold; Fold improvement efficacy” value came out at 63.4 fold. The results for the EC50 in series [12] and in series [13] were 2.2 µM and 7 µM, respectively.
